Measured values as given in US10711001B2, “Macrocylic ligands with picolinate group(s), complexes thereof and also medical uses thereof” (GUERBET, priority 2015, dated 2020).
Where two headings read alike, the source gives them in different places. Marks after values point to notes of the source that are not given here.

What was measured:
[1] = pM = −log[M] calculated from protonation and stability constants; assay type: physicochemical; conditions: calculated from the constants with CL = 10 × CM = 10^−5 M at pH 7.4
Text: The constant pM=-log[M] is used for this purpose. […] The ligand […]04214 has a p(Y) of 17.3, which is higher than that of PCTA (p(Y)=17.0), of […])=16.8) and of […])=16.9).

[2] = cited from earlier work
[3] = Y^3+, cited from earlier work
[4] = Relaxivity of the gadolinium complexes; assay type: physicochemical; conditions: gadolinium complex of the ligand, water, 37° C.
Protocol: The relaxivity studies were performed on the gadolinium complexes of the ligands P04218, P04216 and P04213, on Minispec Mq-20 and Minispec Mq-60 machines (Brüker, Karlsruhe, Germany) at 20 MHz (0.47 T) and 60 MHz (1.4 T) in water at 37° C.
For each complex prepared previously, a [Gd] concentration range extending from 0.5 to 5 mM was prepared and the values T1 and T2 of each of these solutions were then measured to determine the relaxivity values r1 and r2 by means of equation 1. For each of the ligands, a trend curve whose correlation coefficient was equal to or very close to 1 was obtained, which made it possible to check equation 1 and to validate the quality of the measurements taken. The curves plotted make it possible to determine the relaxivity value “r” which corresponds to coefficient “a” of the equation for the straight line “ax+b”.

[5] = Protonation constants of the ligands by potentiometry; assay type: physicochemical; conditions: I = 0.1 KNO3, 25° C.
Protocol: (§1) The experiments were performed under an inert atmosphere in aqueous solutions thermostatically maintained at 25.0±0.1° C. The protonation and complexation titrations were performed in a jacketed glass titrations cell using a Metrohm 702 SM Titrino automatic burette connected to a Metrohm 6.0233.100 combined glass electrode. The titrations were controlled automatically by software after selection of the appropriate parameters avoiding monitoring during long measurements.
The titrant is an approximately 0.1 M KOH solution prepared from an analytical-grade commercial vial and its exact concentration is obtained by applying the Gran method by titrating with a standard HNO3 solution.
(§2) The ligand solutions were prepared at approximately 2.0×10^−3 M and the Cu^2+, Pb^2+ and y^3+ solutions at approximately 0.04 M from analytical-grade chloride salts and standardized by complexometric titration with H4edta (ethylenediaminetetraacetic acid)^1. The solution to be titrated contains approximately 0.05 mmol of ligand in a volume of 30.00 mL, the ionic strength of which was maintained at 0.10 M using KNO3 as electrolyte. 1.2 equivalents of metal cation (Cu^2+ or Pb^2+) were added to the ligand (0.05 mmol) during the standardization titrations of the ligand solution.
The electromotive force of the solution was measured after calibration of the electrode by titration of a standard […] HNO3 solution. The [H^+] of the solutions was determined by measuring the electromotive force of the cell, E=E^o′+Q log [H^+]+Ej. The term “pH” is defined by −log[H^+]. E^o′ and Q are determined by the acidic region of the calibration curves. The liquid junction potential, Ej, is negligible under the experimental conditions used. The value of Ke=[H^+][OH^−] is 10^−13.78.
(§3) The potentiometric data were refined with the Hyperquad software^2 and the speciation diagrams were plotted using the HySS software^3.
(§4) The overall equilibrium constants βiH and βMmHhLl are defined by βMmHhLl=[MmHhLl]/[M]m[H]h[L]l, (βiH=[HhLl]/[H]h[L]l and βMH−1L=βML(OH)×Ke). The differences, in log units, between the protonation (or hydrolysis) values and the non-protonation constants give the intermediate reaction constants (log K) (with KMmHhLl=[MmHhLl]/[MmHh-1Ll][H]). The errors indicated are the standard deviations calculated by the adjustment program from all of the experimental data for each system.
Four protonation constants were determined for the ligands Pc1a2pa sym P04213, Pc1a2pa asym P04214, Pc2a1pa sym P04216 and Pc3pa P04221. These values are coherent with those determined for PCTMB (phosphonic acid, P,P′,P″-[3,6,9,15-tetraazabicyclo[9.3.1]pentadeca-1(15),11,13-triene-3,6,9-triyltris(methylene)]tris-, P,P′,P″-tributyl ester) and also with those described in the literature especially for PCTA (3,6,9,15-tetraazabicyclo[9.3.1]pentadeca-1(15),11,13-triene-3,6,9-triacetic acid), EDTA (ethylenediaminetetraacetic acid) and DOTA (1,4,7,10-tetraazacyclododecane-1,4,7,10-tetraacetic acid).

[6] = Stability constants of the yttrium complexes by potentiometry; assay type: physicochemical; conditions: Y^3+
Protocol: as §1, §2
0.9 equivalent of metal cation (Y^3+) was added to the ligand during the complexation titration methods.
as §3, §4
The thermodynamic protonation and stability constants of the complexes were determined by potentiometry at 25° C. with control of the ionic strength (I=0.1 M KNO3). Refinement of the titration curves with the HyperQuad software makes it possible to determine the overall constants (log β), from which the partial constants (log K) are calculated.
The stability constants of the ligands Pc1a2pa sym P04213, Pc1a2pa asym P04214 et Pc2a1pa sym P04218 and P04221 with yttrium were determined by direct potentiometric titration. The log KYL constant values for the ligands Pc1a2pa sym, Pc1a2pa asym and Pc2a1pa sym are, respectively, 19.78, 19.49 and 19.28, and the log KYLH^−1 constant values are 11.84, 11.79 and 10.60.

[7] = Complexation kinetics of the ligands with yttrium by UV-visible spectroscopy; assay type: physicochemical
Protocol: The formation of the yttrium(III) complexes of […] were studied in an aqueous solution of acetate buffer (C=0.150 M) at 25° C. under pseudo-first-order conditions.
The complexation kinetics of the ligands Pc1a2pa sym P04213, Pc1a2pa asym P04214 and Pc2a1pa sym P04218 with yttrium were studied at pH 3.8 and pH 5.5 in acetate buffer medium by UV-visible spectroscopy. Placed at the absorption maximum of the complex, the increase in absorbance intensity is measured every two seconds until the maximum absorbance is reached. The decrease in intensity of the absorbance at the absorbance maximum of the ligand is monitored when the absorption band of the complex is masked by that of the ligand. For this study, the concentration of the ligands Pc1a2pa sym and Pc1a2pa asym is 4×10^−5 M and 8×10^−5 M for the ligand Pc2a1pa sym. At pH 5.5 and 3.8, the ligand Pc1a2pa sym has the fastest complexation kinetics, with total complexation in 30 and 400 seconds, respectively. For the ligands Pc1a2pa asym and Pc2a1pa sym, the complexation is complete in 1100 seconds at pH 3.8 and 100 seconds at pH 5.5.

[8] = direct potentiometric titration, 25° C., I=0.1 M KNO3
[9] = determined by competition with EDTA, 0.1M KNO3

Row | pY (pM = −log[M]) [1] | Relaxivity r1 ([4]; 20 MHz (0.47 T)) | Relaxivity r1 ([4]; 60 MHz (1.4 T)) | log Ki^H [H2L]/[HL][H] [5] | log Ki^H [H3L]/[H2L][H] [5] | log Ki^H [H4L]/[H3L][H] [5] | log Ki^H [HL]/[L][H] [5] | log KMHiL [ML]/[MLOH][H] (log KYLH^−1) [6, 8] | log KMHiL [ML]/[M][L] (log KYL) [6, 8] | Structure (SMILES) | time to total complexation with yttrium ([7]; pH 3.8, acetate buffer) [s] | time to total complexation with yttrium ([7]; pH 5.5, acetate buffer) [s] | further results
1 | 18.8 |  |  |  |  |  |  |  |  | O=C(O)CN1CCN(CC(=O)O)CCN(CC(=O)O)CCN(CC(=O)O)CC1 [DOTA, 1,4,7,10-tetraazacyclododecane-1,4,7,10-tetraacetic acid] |  |  | log Ki^H [H2L]/[HL][H] ([2]; I = 0.1 Me4NNO3): 9.76; log Ki^H [H3L]/[H2L][H] ([2]; I = 0.1 Me4NNO3): 4.56; log Ki^H [H4L]/[H3L][H] ([2]; I = 0.1 Me4NNO3): 4.09; log KMHiL [ML]/[M][L] ([3]; Ref 7, 0.1M NMe4NO3): 24.9 ^h
2 | 16.6 |  |  |  |  |  |  |  |  | O=C(O)CN(CCN(CC(=O)O)CC(=O)O)CC(=O)O [EDTA, ethylenediaminetetraacetic acid] |  |  | log Ki^H [H2L]/[HL][H] ([2]; I = 0.1 KNO3): 6.16; log Ki^H [H3L]/[H2L][H] ([2]; I = 0.1 KNO3): 2.71; log Ki^H [H4L]/[H3L][H] ([2]; I = 0.1 KNO3): 2.0; log Ki^H [HL]/[L][H] ([2]; I = 0.1 KNO3): 10.22; log KMHiL [ML]/[M][L] ([3]; Ref 5, 0.1M NMe4Cl): 18.5 ^d
3 | 16.8 | r1 = 1.9 mmol^−1s^−1 | r1 = 1.6 mmol^−1s^−1 | 5.58 | 4.23 | 3.01 | 11.30 | 11.84 | 19.78 | O=C(O)CN1CCN(Cc2cccc(C(=O)O)n2)Cc2cccc(n2)CN(Cc2cccc(C(=O)O)n2)CC1 [Ligand P04213] | 400 | 30 | 
4 | 17.3 |  |  | 6.73 | 3.86 | 2.98 | 10.50 | 11.79 | 19.49 | O=C(O)CN1CCN(Cc2cccc(C(=O)O)n2)CCN(Cc2cccc(C(=O)O)n2)Cc2cccc(n2)C1 [Ligand P04214] | 1100 | 100 | 
5 |  | r1 = 3.7 mmol^−1s^−1 | r1 = 3.2 mmol^−1s^−1 |  |  |  |  |  |  | O=C(O)CN1CCN(CC(=O)O)Cc2cccc(n2)CN(Cc2cccc(C(=O)O)n2)CC1 [Ligand P04216] |  |  | 
6 | 16.9 | r1 = 3.9 mmol^−1s^−1 | r1 = 3.2 mmol^−1s^−1 | 7.38 | 3.95 | 2.15 | 10.43 | 10.60 | 19.28 | O=C(O)CN1CCN(Cc2cccc(C(=O)O)n2)CCN(CC(=O)O)Cc2cccc(n2)C1 [Ligand P04218] | 1100 | 100 | 
7 |  |  |  | 5.95 | 3.82 | 2.98 | 10.03 |  |  | O=C(O)c1cccc(CN2CCN(Cc3cccc(C(=O)O)n3)Cc3cccc(n3)CN(Cc3cccc(C(=O)O)n3)CC2)n1 [Ligand P04221] |  |  | 
8 | 14.7 |  |  |  |  |  |  | 11.02 | 16.42 | O=C([O-])c1cccc(CN2CCN(Cc3cccc(C(=O)[O-])n3)Cc3cccc(n3)CN(Cc3cccc(C(=O)[O-])n3)CC2)n1.[Y+3] [Ligand P04222] |  |  | log KMHiL [MHL]/[ML][H] [6, 8]: 3.11
9 | 17.0 |  |  |  |  |  |  |  |  | O=C(O)CN1CCN(CC(=O)O)Cc2cccc(n2)CN(CC(=O)O)CC1 [PCTA, 3,6,9,15-tetraazabicyclo[9.3.1]pentadeca-1(15),11,13-triene-3,6,9-triacetic acid] |  |  | log Ki^H [H2L]/[HL][H] ([2]; I = 1.0 KCl): 7.35; log Ki^H [H3L]/[H2L][H] ([2]; I = 1.0 KCl): 3.83; log Ki^H [H4L]/[H3L][H] ([2]; I = 1.0 KCl): 2.12; log Ki^H [H5L]/[H4L][H] ([2]; I = 1.0 KCl): 1.29; log Ki^H [HL]/[L][H] ([2]; I = 1.0 KCl): 11.36; log KMHiL [MHL]/[ML][H] ([3]; Ref 3, 1.0M KCl): 1.81; log KMHiL [ML]/[MLOH][H] ([3]; Ref 3, 1.0M KCl): 11.10; log KMHiL [ML]/[M][L] ([3]; Ref 3, 1.0M KCl): 20.28

Row | Structure (SMILES) | pY (pM = −log[M]) [1] | Relaxivity r1 ([4]; 20 MHz (0.47 T)) | Relaxivity r1 ([4]; 60 MHz (1.4 T)) | log Ki^H [H2L]/[HL][H] [5] | log Ki^H [H3L]/[H2L][H] [5] | log Ki^H [H4L]/[H3L][H] [5] | log Ki^H [HL]/[L][H] [5] | log KMHiL [ML]/[MLOH][H] (log KYLH^−1) [6, 8] | log KMHiL [ML]/[M][L] (log KYL) [6, 8] | time to total complexation with yttrium ([7]; pH 3.8, acetate buffer) [s] | time to total complexation with yttrium ([7]; pH 5.5, acetate buffer) [s] | further results
10 | CCCCOP(=O)(O)CN1CCN(CP(=O)(O)OCCCC)Cc2cccc(n2)CN(CP(=O)(O)OCCCC)CC1 [PCTMB, phosphonic acid, P,P′,P″-[3,6,9,15-tetraazabicyclo[9.3.1]pentadeca-1(15),11,13-triene-3,6,9-triyltris(methylene)]tris-, P,P′,P″-tributyl ester, reference compound] | 16.7 |  |  | 5.28 | 1.72 |  | 11.16 |  |  |  |  | log KMHiL [MHL]/[ML][H] [6, 9]: 3.45; log KMHiL [ML]/[MLOH][H] [6, 9]: 9.10; log KMHiL [ML]/[M][L] [6, 9]: 19.49
